Results taken from patent publication US10231967B2, “Compounds and their use as BACE inhibitors” (ASTRAZENECA AB, priority 2010, dated 2019).

The compounds below were run on sAPPβ release in SH-SY5Y cells (assay: sAPPβ release assay). Settings: Homo sapiens, SH-SY5Y, 17 h, compounds incubated 17 h, MSD detection.
Assay type: cell-based
Experimental: Thaw cells and seed at a conc. of around 10000 cells/well in DMEM/F-12 with Glutamax, 10% FCS and 1% non-essential amino acids to a 384-well tissue culture treated plate, 100 μL cell susp/well. […] The cell medium was removed, followed by addition of 30 μL compound diluted in DMEM/F-12 with Glutamax, 10% FCS, 1% non-essential amino acids and 1% PeSt to a final conc. of 1% DMSO. The compounds were incubated with the cells for 17 h (overnight) at 37° C., 5% CO2. Meso Scale Discovery (MSD) plates were used for the detection of sAPPβ release. MSD sAPPβ plates were blocked in 1% BSA in Tris wash buffer (40 μL/well) for 1 h on shake at r.t. and washed 1 time in Tris wash buffer (40 μL/well). 20 μL of medium was transferred to the pre-blocked and washed MSD sAPPβ microplates, and the cell plates were further used in an ATP assay to measure cytotoxicity. The MSD plates were incubated with shaking at r.t. for 2 h and the media discarded. 10 μL detection antibody was added (1 nM) per well followed by incubation with shaking at r.t. for 2 h and then discarded. 40 μL Read Buffer was added per well and the plates were read in a SECTOR Imager.

SMILES | IC50 [nM]
COC1CCC2(CC1)Cc1ccc(Br)cc1[C@@]21N=C(C)C(N)=N1 (single isomer, unassigned) [Example 19 Isomer 1] | 18
CC1=NC2(CC(C3CCCOC3)Oc3ccc(Br)cc32)N=C1N (single isomer, unassigned) [Example 47 Isomer 2, 6-Bromo-5′-methyl-2-(tetrahydro-2H-pyran-3-yl)spiro[chromane-4,2′-imidazole]-4′-amine] | 657
CC1=NC2(CCOc3ccc(NC(=O)c4ccc(Cl)cn4)cc32)N=C1N (stereo not drawn) [Example 13a, N-(4′-Amino-5′-methylspiro[chroman-4,2′-imidazole]-6-yl)-5-chloropicolinamide] | 501
CC1=NC2(CCOc3ccc(NC(=O)c4ncc(Cl)cc4Cl)cc32)N=C1N (stereo not drawn) [Example 13i, N-(4′-Amino-5′-methylspiro[chroman-4,2′-imidazole]-6-yl)-3,5-dichloropicolinamide] | 160
CO[C@H]1CC[C@]2(CC1)Cc1ccc(C#CC(C)(C)C)cc1C21N=C(C)C(N)=N1 (stereo partly drawn) [Example 20h] | 7.1
CO[C@H]1CC[C@]2(CC1)Cc1ccc(NC(=O)c3ccc(C(F)(F)F)cn3)cc1C21N=C(C)C(N)=N1 (stereo partly drawn) [Example 20k, N-[(1r,4r)-4″-Amino-4-methoxy-5″-methyl-3′H-dispiro[cyclohexane-1,2′-indene-1′,2″-imidazol]-6′-yl]-5-(trifluoromethyl)pyridine-2-carboxamide] | 8.6
CO[C@H]1CC[C@]2(CC1)Cc1ccc(NC(=O)c3ncc(Cl)cc3Cl)cc1C21N=C(C)C(N)=N1 (stereo partly drawn) [Example 20o, N-[(1r,4r)-4″-Amino-4-methoxy-5″-methyl-3′H-dispiro[cyclohexane-1,2′-indene-1′,2″-imidazol]-6′-yl]-3,5-dichloropyridine-2-carboxamide] | 9.2
CO[C@H]1CC[C@]2(CC1)Cc1ccc(NC(=O)c3ccc(Cl)cn3)cc1C21N=C(C)C(N)=N1 (stereo partly drawn) [Example 20q, N-[(1r,4r)-4″-Amino-4-methoxy-5″-methyl-3′H-dispiro[cyclohexane-1,2′-indene-1′,2″-imidazol]-6′-yl]-5-chloropyridine-2-carboxamide] | 3.8
CO[C@H]1CC[C@]2(CC1)Cc1ccc(OCCC(F)(F)F)cc1C21N=C(C)C(N)=N1 (stereo partly drawn) [Example 20u, (1r,4r)-4-methoxy-5″-methyl-6′-(3,3,3-trifluoropropoxy)-3′H-dispiro[cyclohexane-1,2′-indene-1′,2″-imidazol]-4″-amine] | 0.63
CC1=NC2(N=C1N)c1cc(Br)ccc1CC21CCC(F)(F)CC1 (stereo not drawn) [Example 27, 6′-Bromo-4,4-difluoro-5″-methyl-3′H-dispiro[cyclohexane-1,2′-indene-1′,2″-imidazol]-4″-amine] | 399
CC1=NC2(N=C1N)c1cc(-c3cncc(Cl)c3)ccc1CC21CCC(F)(F)CC1 (stereo not drawn) [Example 28c, 6′-(5-Chloropyridin-3-yl)-4,4-difluoro-5″-methyl-3′H-dispiro[cyclohexane-1,2′-indene-1′,2″-imidazol]-4″-amine] | 109

Same assay, conditions: Homo sapiens, compounds incubated 17 h, MSD detection

SMILES | IC50 [nM]
CC1=N[C@]2(N=C1N)c1cc(-c3cc(F)cc(C#N)c3)ccc1C[C@]21CC[C@@H](OC(F)F)CC1 (racemic) [Example 105, 3-[(1r,4r)-4″-Amino-4-(difluoromethoxy)-5″-methyl-3′H-dispiro[cyclohexane-1,2′-indene-1′,2″-imidazol]-6′-yl]-5-fluorobenzonitrile] | 9.7
COc1cc(C#N)cc(-c2ccc3c(c2)[C@@]2(N=C(C)C(N)=N2)[C@]2(CC[C@H](OC(F)F)CC2)C3)c1 (racemic) [Example 106, 3-[(1r,4r)-4″-Amino-4-(difluoromethoxy)-5″-methyl-3′H-dispiro[cyclohexane-1,2′-indene-1′,2″-imidazol]-6′-yl]-5-methoxybenzonitrile] | 1.1
COc1cc(C#N)cc(-c2ccc3c(c2)[C@@]2(N=C(C)C(N)=N2)[C@]2(CC[C@H](OC)CC2)C3)c1 (single isomer, unassigned) [Example 92 Isomer 1] | 0.27
CC1=NC2(CCOc3ccc(-c4cc(Cl)cc(Cl)c4)cc32)N=C1N (stereo not drawn) [Example 1, 6-(3,5-Dichlorophenyl)-5′-methylspiro[chroman-4,2′-imidazol]-4′-amine] | 587
CC1=NC2(CCOc3ccc(-c4cncc(Cl)c4)cc32)N=C1N (stereo not drawn) [Example 2, 6-(5-Chloropyridin-3-yl)-5′-methylspiro[chroman-4,2′-imidazol]-4′-amine] | 941
CC1=NC2(CCOc3ccc(-c4cc(F)cc(F)c4)cc32)N=C1N (stereo not drawn) [Example 3, 6-(3,5-Difluorophenyl)-5′-methylspiro[chroman-4,2′-imidazol]-4′-amine] | 2880
CC1=NC2(CCOc3ccc(NC(=O)c4ccc(C(F)(F)F)cn4)cc32)N=C1N (stereo not drawn) [Example 13c, N-(4′-Amino-5′-methylspiro[chroman-4,2′-imidazole]-6-yl)-5-(trifluoromethyl)picolinamide] | 463
CC#CCOc1ccc(C(=O)Nc2ccc3c(c2)C2(CCO3)N=C(C)C(N)=N2)nc1 (stereo not drawn) [Example 13d, N-(4′-amino-5′-methylspiro[chroman-4,2′-imidazole]-6-yl)-5-(but-2-ynyloxy)picolinamide] | 239
CC#CCOc1cnc(C(=O)Nc2ccc3c(c2)C2(CCO3)N=C(C)C(N)=N2)cn1 (stereo not drawn) [Example 13e, N-(4′-Amino-5′-methylspiro[chroman-4,2′-imidazole]-6-yl)-5-(but-2-ynyloxy)pyrazine-2-carboxamide] | 106
CC1=NC2(N=C1N)c1cc(Br)ccc1CC21CCC(OC(F)F)CC1 (stereo not drawn) [Example 15, 6′-Bromo-4-(difluoromethoxy)-5″-methyl-3′H-dispiro[cyclohexane-1,2′-indene-1′,2″-imidazol]-4″-amine] | 46
CC#Cc1ccnc(-c2ccc3c(c2)C2(N=C(C)C(N)=N2)[C@]2(CC[C@H](OC)CC2)C3)c1 (stereo partly drawn) [Example 20b, (1r,4r)-4-Methoxy-5″-methyl-6′-[4-(prop-1-yn-1-yl)pyridin-2-yl]-3′H-dispiro[cyclohexane-1,2′-indene-1′,2″-imidazol]-4″-amine] | 0.78
CO[C@H]1CC[C@]2(CC1)Cc1ccc(-c3cc(C#N)cc(C#N)c3)cc1C21N=C(C)C(N)=N1 (stereo partly drawn) [Example 20c, 5-[(1r,4r)-4″-Amino-4-methoxy-5″-methyl-3′H-dispiro[cyclohexane-1,2′-indene-1′,2″-imidazol]-6′-yl]benzene-1,3-dicarbonitrile] | 1.7
CO[C@H]1CC[C@]2(CC1)Cc1ccc(-c3cncc(F)c3)cc1C21N=C(C)C(N)=N1 (stereo partly drawn) [Example 20f, (1r,4r)-6′-(5-Fluoropyridin-3-yl)-4-methoxy-5″-methyl-3′H-dispiro[cyclohexane-1,2′-indene-1′,2″-imidazol]-4″-amine] | 3.3
CO[C@H]1CC[C@]2(CC1)Cc1ccc(NC(=O)c3ncc(Br)cn3)cc1C21N=C(C)C(N)=N1 (stereo partly drawn) [Example 20j, N-[(1r,4r)-4″-Amino-4-methoxy-5″-methyl-3′H-dispiro[cyclohexane-1,2′-indene-1′,2″-imidazol]-6′-yl]-5-bromopyrimidine-2-carboxamide] | 91
CO[C@H]1CC[C@]2(CC1)Cc1ccc(NC(=O)c3oc4cc(Cl)ccc4c3C)cc1C21N=C(C)C(N)=N1 (stereo partly drawn) [Example 20n, N-[(1r,4r)-4″-Amino-4-methoxy-5″-methyl-3′H-dispiro[cyclohexane-1,2′-indene-1′,2″-imidazol]-6′-yl]-6-chloro-3-methyl-1-benzofuran-2-carboxamide] | 3.7
CO[C@H]1CC[C@]2(CC1)Cc1ccc(OCCCF)cc1C21N=C(C)C(N)=N1 (stereo partly drawn) [Example 20v] | 1.2
CO[C@H]1CC[C@]2(CC1)Cc1ccc(NC(=O)c3ncc(Cl)cc3C)cc1C21N=C(C)C(N)=N1 (stereo partly drawn) [Example 20w, N-[(1r,4r)-4″-Amino-4-methoxy-5″-methyl-3′H-dispiro[cyclohexane-1,2′-indene-1′,2″-imidazol]-6′-yl]-5-chloro-3-methylpyridine-2-carboxamide] | 5.7
CO[C@H]1CC[C@]2(CC1)Cc1ccc(NC(=O)c3ccc(F)cn3)cc1C21N=C(C)C(N)=N1 (stereo partly drawn) [Example 20x, N-[(1r,4r)-4″-Amino-4-methoxy-5″-methyl-3′H-dispiro[cyclohexane-1,2′-indene-1′,2″-imidazol]-6′-yl]-5-fluoropyridine-2-carboxamide] | 29
CC#Cc1cc(-c2ccc3c(c2)C2(N=C(C)C(N)=N2)[C@]2(CC[C@H](OC)CC2)C3)ccn1 (stereo partly drawn) [Example 20y, (1r,4r)-4-Methoxy-5″-methyl-6′-[2-(prop-1-yn-1-yl)pyridin-4-yl]-3′H-dispiro[cyclohexane-1,2′-indene-1′,2″-imidazol]-4″-amine] | 1.2
CC1=NC2(N=C1N)c1cc(-c3cccc(Cl)c3)ccc1CC21CCOCC1 (stereo not drawn) [Example 26a, 6′-(3-Chlorophenyl)-5-methyl-2″,3″,5″,6″-tetrahydro-3′H-dispiro[imidazole-2,1′-indene-2′,4″-pyran]-4-amine] | 53
CC1=NC2(N=C1N)c1cc(-c3ccc(F)c(Cl)c3)ccc1CC21CCOCC1 (stereo not drawn) [Example 26c, 6′-(3-Chloro-4-fluorophenyl)-5-methyl-2″,3″,5″,6″-tetrahydro-3′H-dispiro[imidazole-2,1′-indene-2′,4″-pyran]-4-amine] | 140
CC1=NC2(N=C1N)c1cc(NC(=O)c3ccc(Cl)cn3)ccc1CC21CCC(F)(F)CC1 (stereo not drawn) [Example 28d, N-(4″-Amino-4,4-difluoro-5″-methyl-3′H-dispiro[cyclohexane-1,2′-indene-1′,2″-imidazol]-6′-yl)-5-chloropyridine-2-carboxamide] | 89
